# Data from PubChem BioAssay AID652280 (Broad Institute, 2013).
# Inconclusive results are not listed. Calls of active or inactive are those of the source. The rule behind the calls is not given here.
# Assay: mouse embryonic fibroblast toxicity – cell-based, plate reader, dry powder, set 2, cytotoxicity control, dose response (AID 652280)
# Conditions: NIH/3T3 mouse fibroblast toxicity, plate reader; at 16 µM (top of the series)
row,SMILES,"activity change, negative = toxicity"
1,CC(C)N1C[C@@H](C)[C@H](CN(C)Cc2ccc(Oc3ccccc3)cc2)Oc2c(cccc2N(C)C(=O)c2ccncc2)C1=O,-4.89% (inactive)
2,CC(C)N1C[C@H](C)[C@@H](CN(C)C(=O)OC(C)(C)C)Oc2c(cccc2-c2nn[nH]n2)C1=O,34.3% (inactive)
3,Cc1ccc(CN(C)C[C@H]2Oc3c(NC(=O)c4ccncc4)cccc3C(=O)N([C@@H](C)CO)C[C@@H]2C)cc1,-16.5% (inactive)
4,C[C@@H]1CN([C@@H](C)CO)C(=O)c2cc(Br)cnc2O[C@H]1CN(C)Cc1ccc2c(c1)OCO2,-12% (inactive)
5,C[C@@H]1CN([C@@H](C)CO)C(=O)c2cc(-c3cncnc3)cnc2O[C@H]1CN(C)Cc1ccc(Oc2ccccc2)cc1,-26.5% (inactive)
6,CC(C)N1C[C@@H](CN(C)CCc2ccc(Cl)cc2)Oc2c(NC(=O)c3ccncc3)cccc2C1=O,-32% (inactive)
7,CCN(C)C[C@H]1Oc2c(NC(=O)c3ccncc3)cccc2C(=O)N(C(C)C)[C@@H]1C,-7.46% (inactive)
8,CC(C)N1CC2(CN(Cc3ccccc3F)C2)Oc2c(NC(=O)c3ccncc3)cccc2C1=O,6.11% (inactive)
9,Cc1cccc(-c2ccc([C@H]3[C@H](CO)N4CCCCN(C(=O)c5ccncc5)C[C@@H]34)cc2)c1,-19.7% (inactive)
10,CN(C)C(=O)c1cccc(-c2ccc([C@H]3[C@H](CO)N4CCCCN(Cc5cccnc5)C[C@@H]34)cc2)c1,-3% (inactive)
11,CC(C)N1CC2(CN(CC3CCCCC3)C2)Oc2c(NC(=O)c3ccncc3)cccc2C1=O,9.84% (inactive)
12,CN(C)CC#Cc1cccc(-c2nc(C(=O)N3CCN(Cc4ccccc4)CC3)cc3c2[C@H](CCO)N(S(=O)C(C)(C)C)C3)c1 (some centres not stated),-3.09% (inactive)
13,C[C@H]1CN([C@@H](C)CO)C(=O)c2cccc(NC(=O)c3ccncc3)c2O[C@@H]1CN(C)Cc1cccc(Cl)c1,-20.7% (inactive)
14,CC(C)N1C[C@@H](CN(C)Cc2ccc(Cl)cc2)Oc2c(C(=O)Nc3ccnnc3)cccc2C1=O,-4.49% (inactive)
15,CC(C)N1C[C@@H](C)[C@H](CN(C)Cc2ccc(Oc3ccccc3)cc2)Oc2c(C(=O)O)cccc2C1=O,9.6% (inactive)
16,COc1ccc(C#Cc2cccc(-c3nc(C(=O)NCc4ccc5c(c4)OCO5)cc4c3[C@@H](CCO)N(S(=O)C(C)(C)C)C4)c2)cc1OC (some centres not stated),9.35% (inactive)

row,SMILES,"activity change, negative = toxicity"
1,C[C@H]1CN([C@@H](C)CO)C(=O)c2cccc(NC(=O)c3ccncc3)c2O[C@@H]1CN(C)Cc1ccc(Cl)cc1Cl,-13.3% (inactive)
2,C[C@H]1CN([C@@H](C)CO)C(=O)c2cccc(NC(=O)c3ccncc3)c2O[C@@H]1CN(C)Cc1ccccc1C(F)(F)F,14.1% (inactive)
3,CN(C)C(=O)c1cccc(-c2ccc([C@H]3[C@H](CO)N4CCCCN(CC5CCOCC5)C[C@@H]34)cc2)c1,20% (inactive)
4,C[C@@H]1CN([C@H](C)CO)C(=O)c2cccc(NC(=O)c3ccncc3)c2O[C@H]1CN(C)Cc1ccc2c(c1)OCO2,-14.9% (inactive)
5,C[C@H]1CN([C@@H](C)CO)C(=O)c2cccc(NC(=O)c3ccncc3)c2O[C@@H]1CN(C)Cc1cc(Cl)ccc1Cl,3.82% (inactive)
6,O=C(Cn1ccnc1[N+](=O)[O-])NCc1ccccc1,17.4% (inactive)
7,O=C(Cc1ccccn1)N1CCCCN2[C@@H](CO)[C@H](c3ccc(Br)cc3)[C@@H]2C1,9.05% (inactive)
8,C[C@@H]1CN([C@@H](C)CO)C(=O)c2cccc(NC(=O)c3ccncc3)c2O[C@H]1CN(C)C,-10.2% (inactive)
9,CC(C)N1C[C@@H](CN(C)Cc2ccc(Cl)cc2)Oc2c(NC(=O)c3ccncn3)cccc2C1=O,-18.8% (inactive)
10,C[C@@H]1CN([C@@H](C)CO)C(=O)c2cccc(NC(=O)c3ccncc3)c2O[C@@H]1CN(C)Cc1ccc(Oc2ccccc2)cc1,15.4% (inactive)
11,COC[C@H](C)N1C[C@H](C)[C@@H](CN(C)Cc2ccc(Oc3ccccc3)cc2)Oc2c(NC(=O)c3ccncc3)cccc2C1=O,128% (inactive)
12,O=C(Cc1ccccn1)N1CCCCN2[C@@H](CO)[C@H](c3ccc(-c4ccc(F)cc4)cc3)[C@@H]2C1,-8.79% (inactive)
13,O=C(Cc1ccccn1)N1CCCCN2[C@@H](CO)[C@H](c3ccc(-c4ccccc4)cc3)[C@@H]2C1,-15.8% (inactive)
14,CC(C)N1C[C@H](CN(C)Cc2ccc(Cl)cc2)Oc2c(NC(=O)c3ccnnc3)cccc2C1=O,3.72% (inactive)
15,C[C@H]1CN([C@@H](C)CO)C(=O)c2cccc(NC(=O)c3ccncc3)c2O[C@@H]1CN(C)Cc1ccc(F)c(F)c1,-6.64% (inactive)
16,CC(C)N1C[C@H](CN(C)Cc2ccc(Cl)cc2)Oc2c(NC(=O)c3ccncc3)cccc2C1=O,-35.4% (inactive)
